Assay results: patent publication US4183931A, “2-Ketoalkyl-4(3H)-quinazolinones” (Research Corporation, priority 1977, dated 1980)

What was measured:
[1] = literature; cited from earlier work
[2] = NINCDS Maximal Electroshock Seizure Test (MES); format: in vivo, mice; conditions: for minimal effective dose: read-out: MES: dosage level that elicited protection
Procedure: (§1) 1. Neurological Activity Tests. […] Compounds were evaluated for anticonvulsant activity in two seizure models, the maximal electroshock seizure (MES) test and the subcutaneous pentylenetetrazol (Metrazol) seizure threshold (scMet) test.
The Maximal Electroshock Seizure Test was performed according to the method described by Swinyard and coworkers,* wherein a drop of 0.9% saline is instilled in each eye prior to application of corneal electrodes. Seizures are elicited with a 50 Hz alternating current of 50 mA (5 to 7 times that necessary to elicit minimal electroshock seizures) delivered for 0.2 sec via corneal electrodes. This stimulus will produce a maximal seizure in all normal mice. The maximal seizure typically consists of a short period of initial tonic flexion and a prolonged period of hind limb tonic extension, followed by terminal clonus. The seizure lasts about 22 seconds. Abolition of the hind limb tonic extensor component of the seizure is defined as protection and indicates anticonvulsant activity in the test compound.
(§2) The ability of a compound to prevent maximal electroshock seizures is believed to correlate with its ability to prevent the spread of seizure discharge through neural tissue. Activity against maximal electroshock seizures is thought to indicate potential efficacy in the treatment of major motor (grand mal) seizures. […] Selective action in the test is believed to indicate potential efficacy against absence (petit mal) seizures.
(§3) As described earlier, the MES, scMet and Rotorod tests were performed one-half hour and four hours after administration of each compound.
(§4) In the Secondary Evaluation, median effective doses (ED50) are determined in the MES, scMet and Rotorod assays using the procedures defined in Pharmacology, 95, 99-113 (1949).
(§5) Separate groups of animals are used for each time period. The times of peak toxic and anticonvulsant effect are taken from the resulting graph of percent of animals responding vs. time, and the determinations of median effective doses are performed at those times.

[3] = NINCDS Subcutaneous Pentylenetetrazol (Metrazol) Seizure Threshold Test (scMet); format: in vivo, mice; conditions: for minimal effective dose: sc, read-out: scMet: dosage level that elicited protection
Procedure: as §1
Subcutaneous Pentylenetetrazol (Metrazol) Seizure Threshold Test (scMet) produces threshold (clonic) seizures. Pentylenetetrazol is administered subcutaneously as a threshold 0.5% solution (in 0.9% sodium chloride) in a loose fold of skin on the back of the neck in a dose of 85 mg/kg. […] Metrazol is given 10 minutes before the beginning of the test to allow for the delay in onset of Metrazol action. The animal is observed for 30 minutes. Failure to observe even a threshold seizure (a single episode of clonic spasms at least 5 seconds in duration) is defined as protection and indicates anticonvulsant activity in the test compound. These two methods of seizure provocation reliably elicit well-characterizied seizure phenomena.
as §2, §3, §4, §5

[4] = NINCDS rotorod ataxia test (minimal neurotoxicity); format: in vivo, mice
Procedure: (§6) 1. Neurological Activity Tests. The biological testing program is designed to evaluate the following four aspects of drug action: (1) the existence and specificity of anticonvulsant activity; (2) the toxicity, particularly to the central nervous system; and, if the results of (1) and (2) are favorable, (3) the potency and protective index, a comparison between toxic and effective dose and (4) the time course of activity. Compounds were evaluated for anticonvulsant activity in two seizure models, the maximal electroshock seizure (MES) test and the subcutaneous pentylenetetrazol (Metrazol) seizure threshold (scMet) test.
Central nervous system toxicity was evaluated in the rotorod ataxia test. This test is designed to detect minimal neurotoxicity. The animal is placed on a 1-inch diameter knurled plastic rod rotating at 6 rpm. Normal mice can remain indefinitely on a rod rotating at this speed. Neurological deficit is defined as the failure of the animal to remain on the rod for at least 1 minute. This test has a clear end-point, is quantifiable and correlates well with the clinical assessment of minimal toxicity.
(§7) Specific anticonvulsant evaluations performed by NINCDS using MES, scMet and Rotorod assays are presented in Tables III & IV for fourteen new compounds as well as several known compounds. Table III centers attention on 2-substituted-3-o-tolyl-4-(3H)-quinazolinones while Table IV includes the findings for various other 2,3-disubstituted-4(3H)-quinazolinones. As described earlier, the MES, scMet and Rotorod tests were performed one-half hour and four hours after administration of each compound. The tables identify the dosage level that elicited a positive result, such as protection against MES and scMet induced seizures, or loss of balance on the rotorod.
In the Secondary Evaluation, median effective doses (ED50) are determined in the MES, scMet and Rotorod assays using the procedures defined in Pharmacology, 95, 99-113 (1949). In addition, each compound's anticonvulsant activity and neurotoxicity over time are determined by measuring the effect of an intraperitoneally administered estimated median effective dose on maximal electroshock seizures and rotorod performance at intervals of 1/2, 1, 2, 3, 4, 6 and 8 hours.
as §5

[5] = NINCDS primary evaluation, overall classification; format: in vivo, mice; design: key to NINCDS Classification: III: did not exhibit activity in any of the 3 categories at dose levels of 300 mg/kg; conditions: primary evaluation
Procedure: as §6, §7

[6] = Neuropharmacological Profile (NPP): general CNS observational screen (depression, righting reflex, ataxia); conditions: i.p., mice, score 0-8
Procedure: Representative compounds according to the present invention were tested for central nervous system activity by Pharmakon Laboratories of Scranton, Pennsylvania. The battery of general observational procedures used is referred to herein as a Neuropharmacological Profile (NPP). Additionally, representative compounds were tested in the Anticonvulsant Screening Project of the National Institutes of Neurological and Communicative Disorders and Stroke (NINCDS) at the University of Utah under the direction of Dr. Ewart A. Swinyard.
(§8) The procedures for the determination of a neuropharmacological profile involved white male mice of the Carworth Farm Strain CF-1 weighing 18 to 22 grams. […] Intraperitoneal injections were administered in logarithmic progression and sequentially. The dose levels employed routinely were 10, 30, 100 and 300 mg/kg, using four male mice at each dose level. Since this test was conducted in a sequential manner, the first does administered was at 300 mg/kg. […] Approximately thirty-eight signs and symptoms of pharmacological activity can be identified.
(§9) The animals were observed continously for one hour and, if no signs of pharmacological or toxicological activity were present at the end of the first hour, they were intermittently checked for activity every fifteen minutes thereafter for two consecutive hours. […] The observation period began immediately following the injection and the animals were then continuously observed for three hours and intermittently checked thereafter for forty-eight hours. The animals were observed and signs and symptoms of pharmacological activity were recorded continuously until no further symptoms developed and until the symptoms that appeared were no longer present. […] In such instances, the animals were observed beyond this period until they returned to normal. Routinely, the number of animals alive at the end of the forty-eight hour observation period was recorded and the LD50 estimated.
The animals are free to move about for evaluation of spatial orientation, alertness and spontaneous motor activity.
(§10) Since this is a general CNS screening procedure, only peak effects were recorded. Certain measures of behavior and neurological deficit were scored in terms of intensity of effect, while most others were determined on an all or none basis. Thus, in scoring measures which were normally present, e.g., spontaneous activity and skin color, an increase in score from 4 to 8 was used to denote stimulation or enhancement of skin color, whereas a decrease in score from 4 to 0 indicated depression or cyanosis. For scoring measures normally absent, e.g., depression, righting reflex and ataxia, activity was reflected as an increase in score from 0 to 8. The 0 to 8 scale was rounded off so that the actual ratings are only 0, 2, 4, 6 and 8. The compounds were also evaluated for anticonvulsant activity by using the maximal electroshock seizure (MES) test. In the MES study, four mice were dosed intraperitoneally at 100 mg/kg and challenged thirty minutes later with 50 mA, 0.2 second duration of electroshock. A protection ratio (number of mice protected from tonic extension .div. number of mice tested) was then established.
At the termination of the test, the results were recorded and tabulated.
(§11) Scores for behavioral symptoms, including depression, righting reflex and ataxia, are the actual numbers reported. Protection against MES is reported as a percentage. Since four animals were involved in this test, the findings are 0% for none protected, 25% for one out of four, etc. […] In order to maintain reasonable uniformity in the reporting of results, each entry corresponds to a dosage level of 100 mg/kg. Any variations from that dosage are indicated.

[7] = NPP maximal electroshock seizure (MES) protection; format: in vivo, white male mice of the Carworth Farm Strain CF-1; conditions: Mus musculus, ip, 0.5 h; at 100 mg/kg i.p., four mice, 30 min after dosing
Procedure: as §8, §10, §11

[8] = NPP lethality (estimated LD50); conditions: mouse, in vivo, ip
Procedure: as §8, §9, §11

[9] = Mus musculus, ip, after 4 hr (value in parentheses)
[10] = Mus musculus, after 4 hr (value in parentheses)
[11] = after 4 hr (value in parentheses)
[12] = Mus musculus, ip, secondary evaluation, at time of peak effect

| SMILES | minimal effective dose ([2]; Mus musculus, ip, after 0.5 hr) [mg/kg] | minimal effective dose ([3]; Mus musculus, after 0.5 hr) [mg/kg] | minimal effective dose [3, 10] [mg/kg] | Rotorod: dosage level that elicited loss of balance ([4]; after 0.5 hr) [mg/kg] | Rotorod: dosage level that elicited loss of balance [4, 11] [mg/kg] | CNS Depression ([6]; at 100 mg/kg) | LD50 at 48 h [8] [mg/kg] | also measured |
| --- | --- | --- | --- | --- | --- | --- | --- | --- |
| Cc1ccccc1-n1c(C)nc2c(c1=O)CCCC2 |  |  |  |  |  |  |  | sedative-hypnotic / hypnotic / depressant activity (in words) [1]: lack of hypnotic activity |
| Cc1ccccc1N1C(=O)c2ccccc2NC1C (stereo not drawn) [1,2-dihydro derivative] |  |  |  |  |  |  |  | sedative-hypnotic / hypnotic / depressant activity (in words) [1]: abolishes depressant activity |
| CCN(CC)c1ccc(-n2c(C)nc3ccccc3c2=O)cc1 [2-methyl-3-(p-diethylaminophenyl)-4(3H)-quinazolinone] |  |  |  |  |  |  |  | sedative-hypnotic / hypnotic / depressant activity (in words) [1]: equal hypnotic activity to methaqualone |
| CCc1nc2ccccc2c(=O)n1-c1ccccc1C [CH3, 2-Ethyl-3-o-tolyl-4(3H)-quinazolinone, reference compound] | 100 | 100 | 300 | 100 | 300 |  |  | minimal effective dose [2, 9]: 300 mg/kg |
| Cc1ccccc1-n1c(CC(O)c2ccccc2)nc2ccccc2c1=O (stereo not drawn) [CHOHC6 H5, 2-(2-Hydroxy-2-phenylethyl)-3-o-tolyl-4(3H)-quinazolinone] |  | 300 |  |  | 300 |  |  |  |
| Cc1ccccc1-n1c(CC(=O)c2ccc[n+](C)c2)nc2ccccc2c1=O [CO-3-C5 H4 N^+ CH3 I^-] |  |  | 30 | 100 |  |  |  | minimal effective dose [2, 9]: 100 mg/kg; toxicity remark (footnote a to NINCDS classification) [5]: Extremely toxic |
| Cc1ccccc1-n1c(C)nc2cc(N)ccc2c1=O [H and 7-amino, reference compound] | 100 | 100 | 100 | 100 | 300 |  |  | minimal effective dose [2, 9]: 100 mg/kg; toxicity remark (footnote a to NINCDS classification) [5]: Extremely toxic |
| Cc1ccccc1-n1c(CC(=O)c2ccncc2)nc2ccccc2c1=O [IIId, 2-[2-Oxo-2-(4-pyridyl)ethyl]-3-o-tolyl-4(3H)-quinazolinone] | 100 | 30 | 300 |  |  | 0 | > 562 | Depression ([6]; at 300 mg/kg): 4; responders at 100 mg/kg [7]: 0%; ED50 [2, 12]: 74 mg/kg; MES protective index compared with methaqualone ([2]; secondary evaluation): approximately five-fold higher; PI MES (Protective Index = TD50/ED50) ([2]; secondary evaluation): 5.94; potency against electroshock-induced (MES) seizures compared with methaqualone ([2]; secondary evaluation): less potent than methaqualone; ED50 [3, 12]: 75 mg/kg; PI scMet (Protective Index = TD50/ED50) ([3]; secondary evaluation): 5.86; potency against scMet seizures compared with methaqualone ([3]; secondary evaluation): less potent than methaqualone; scMet protective index compared with methaqualone ([3]; secondary evaluation): approximately five-fold higher; TD50 ([4]; mouse, in vivo, ip, secondary evaluation, at time of peak effect): 440 mg/kg |
| Cc1ccccc1-n1c(CC(=O)c2ccc(NC(=O)C(F)(F)F)cc2)nc2ccccc2c1=O [IIIl, 2-[2-Oxo-2-(p-trifluoroacetamidophenyl)ethyl]-3-o-tolyl-4(3H)-quinazolinone] |  | 300 |  | 300 |  |  |  |  |
| O=C(Cc1nc2ccccc2c(=O)n1-c1ccccc1Cl)C(F)(F)F [IVa, 2-(3,3,3-Trifluoroacetonyl)-3-o-chlorophenyl-4(3H)-quinazolinone] |  |  |  | 300 | 300 | 8 | 178 | CNS Depression ([6]; at 30 mg/kg (value in parentheses)): 6; NINCDS Classification [5]: III |
| O=C(Cc1nc2ccccc2c(=O)n1-c1ccccc1Cl)c1cccnc1 [IVc, 2-[2-Oxo-2-(3-pyridyl)ethyl]-3-o-chlorophenyl-4(3H)-quinazolinone] |  | 300 | 300 |  | 300 | 4 | 562 | responders at 100 mg/kg [7]: 25% |
| O=C(Cc1nc2ccccc2c(=O)n1-c1ccccc1)c1cccnc1 [IVg, 2-[2-Oxo-2-(3-pyridyl)ethyl]-3-phenyl-4(3H)-quinazolinone] | 100 | 100 |  |  |  | 2 | 562 | responders at 100 mg/kg [7]: 0% |
